Reference: publication PMC6173770, “Direct electrical quantification of glucose and asparagine from bodily fluids using nanopores” (Nature Communications, 2018)

Target: T1, SBD1 (Lactococcus lactis, UniProt Q9CES5)
T1 construct: gene glnP; His tag cleaved off by TEV; expressed in E. coli MC1061; SEC purified
T1 sequence (Q9CES5 27-251 limits assumed): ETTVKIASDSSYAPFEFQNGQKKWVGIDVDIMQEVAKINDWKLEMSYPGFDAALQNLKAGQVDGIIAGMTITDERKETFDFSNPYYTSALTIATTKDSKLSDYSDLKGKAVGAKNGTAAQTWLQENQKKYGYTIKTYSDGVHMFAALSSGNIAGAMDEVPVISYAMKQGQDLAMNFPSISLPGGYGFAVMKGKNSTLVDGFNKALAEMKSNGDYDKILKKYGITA
Experiment: single-molecule nanopore current (SBD1 trapped in ClyA-AS), closed fraction vs ligand, Hill fit n = […]
Assay type: binding
Conditions: 150 mM NaCl, 15 mM Tris-HCl, pH 7.5, 25 °C, -90 mV, asparagine in trans; read-out: Kd^app

## NC(=O)C[C@H](N)C(=O)O [asparagine]
  Kd: 500 ± 40 nM
